# Measurements: the OligoGym collection
# Values joined by “and” are separate entries in the source; they are usually repeats but may differ in a detail not shown here. Identical values can stand only once. HELM strings list units from the 5' end as sugar, base in round brackets, then linkage (d deoxyribose, r ribose, m 2'-O-methyl, p phosphodiester). Strings are as the collection lists them, not checked against the first reports. ss, as = sense and antisense strand; [lna] = locked nucleic acid (LNA); [una] = unlocked nucleic acid; [s4r] = 4'-thioribose; [fl2r] = 2'-fluoro
# Settings: siRNA
# Also: test system not given here.
row,Substance,target mRNA knockdown
1,RNA1{r(A)p.r(C)p.r(C)p.r(U)p.r(U)p.r(U)p.r(C)p.r(C)p.r(A)p.r(C)p.r(U)p.r(U)p.r(C)p.r(U)p.r(A)p.r(A)p.r(G)p.r(C)p.r(C)p.r(T)p.r(T)}|RNA2{r(G)p.r(G)p.r(C)p.m(U)p.m(U)p.r(A)p.r(G)p.r(A)p.r(A)p.r(G)p.m(U)p.r(G)p.r(G)p.r(A)p.r(A)p.r(A)p.r(G)p.r(G)p.m(U)p.r(T)p.r(T)}$$$RNA1{StrandType:ss}|RNA2{StrandType:as}$,80%
2,RNA1{m(A)p.r(A)p.m(G)p.r(G)p.m(C)p.r(A)p.m(U)p.r(G)p.m(C)p.r(U)p.m(U)p.r(C)p.m(G)p.r(G)p.m(A)p.r(A)p.m(A)p.r(C)p.m(U)p.r(T)p.r(T)}|RNA2{r(A)p.m(G)p.r(U)p.r(U)p.r(U)p.r(C)p.r(C)p.r(G)p.r(A)p.r(A)p.m(G)p.r(C)p.r(A)p.r(U)p.m(G)p.r(C)p.r(C)p.r(U)p.r(U)p.r(T)p.r(T)}$$$RNA1{StrandType:ss}|RNA2{StrandType:as}$,60%
3,RNA1{r(A)p.r(G)p.r(A)p.r(A)p.r(A)p.r(A)p.r(G)p.r(C)p.r(A)p.r(G)p.r(C)p.r(G)p.r(A)p.m(U)p.r(A)p.r(C)p.r(G)p.r(C)p.r(U)p.r(T)p.r(T)}|RNA2{r(A)p.r(G)p.r(C)p.r(G)p.r(U)p.r(A)p.r(U)p.r(C)p.r(G)p.r(C)p.r(U)p.r(G)p.r(C)p.r(U)p.r(U)p.r(U)p.r(U)p.r(C)p.r(U)p.r(T)p.r(T)}$$$RNA1{StrandType:ss}|RNA2{StrandType:as}$,69%
4,RNA1{r(G)p.r(A)p.r(A)p.r(G)p.r(A)p.r(G)p.r(U)p.m(U)p.r(A)p.r(A)p.r(C)p.r(C)p.r(C)p.m(G)p.r(G)p.r(G)p.m(A)p.r(C)p.r(U)p.r(T)p.r(T)}|RNA2{r(A)p.r(G)p.r(U)p.r(C)p.r(C)p.r(C)p.r(G)p.r(G)p.r(G)p.r(U)p.m(U)p.r(A)p.r(A)p.r(C)p.r(U)p.r(C)p.r(U)p.r(U)p.r(C)p.r(T)p.r(T)}$$$RNA1{StrandType:ss}|RNA2{StrandType:as}$,47%
5,RNA1{m(A)p.m(A)p.r(C)p.r(C)p.r(C)p.m(A)p.r(C)p.r(C)p.m(A)p.r(C)p.m(A)p.r(G)p.r(C)p.m(U)p.m(A)p.r(G)p.m(A)p.m(A)p.r(C)p.m(U)p.m(U)}|RNA2{r(A)p.r(A)p.r(G)p.r(U)p.r(U)p.r(C)p.m(U)p.m(A)p.r(G)p.r(C)p.r(U)p.r(G)p.r(U)p.r(G)p.r(G)p.r(U)p.r(G)p.r(G)p.r(G)p.r(U)p.r(U)}$$$RNA1{StrandType:ss}|RNA2{StrandType:as}$,44%
6,RNA1{r(U)p.r(C)p.r(C)p.r(G)p.r(G)p.r(C)p.[fl2r](U)p.r(A)p.r(A)p.r(C)p.r(U)p.r(C)p.[fl2r](U)p.r(G)p.r(A)p.r(G)p.r(G)p.r(A)p.r(C)p.r(T)p.r(T)}|RNA2{r(G)p.r(U)p.r(C)p.r(C)p.r(U)p.[fl2r](C)p.r(A)p.r(G)p.r(A)p.r(G)p.r(U)p.r(U)p.r(A)p.r(G)p.r(C)p.r(C)p.[fl2r](G)p.r(G)p.r(A)p.r(T)p.r(T)}$$$RNA1{StrandType:ss}|RNA2{StrandType:as}$,85%
7,RNA1{r(C)p.r(C)p.r(G)p.r(A)p.r(A)p.r(G)p.r(A)p.r(C)p.r(G)p.m(A)p.m(A)p.r(G)p.r(C)p.m(U)p.r(A)p.m(U)p.r(G)p.r(A)p.r(A)p.r(T)p.r(T)}|RNA2{r(U)p.r(U)p.m(C)p.r(A)p.m(U)p.r(A)p.r(G)p.r(C)p.r(U)p.r(U)p.r(C)p.r(G)p.r(U)p.r(C)p.r(U)p.r(U)p.r(C)p.r(G)p.r(G)p.r(T)p.r(T)}$$$RNA1{StrandType:ss}|RNA2{StrandType:as}$,69%
8,RNA1{r(C)p.r(U)p.r(U)p.r(A)p.r(C)p.r(G)p.r(C)p.r(U)p.r(G)p.r(A)p.r(G)p.r(U)p.r(A)p.r(C)p.r(U)p.r(U)p.r(C)p.r(G)p.r(A)p.r(T)p.r(T)}|RNA2{r(U)p.r(C)p.r(G)p.r(A)p.r(A)p.r(G)p.r(U)p.r(A)p.r(C)p.r(U)p.r(C)p.r(A)p.r(G)p.r(C)p.r(G)p.r(U)p.r(A)p.r(A)p.[lna](G)p.r(T)p.r(T)}$$$RNA1{StrandType:ss}|RNA2{StrandType:as}$,88%
9,RNA1{r(G)p.r(U)p.r(A)p.r(U)p.r(G)p.r(A)p.r(C)p.r(C)p.r(G)p.r(A)p.r(C)p.r(U)p.r(A)p.r(C)p.r(G)p.r(C)p.r(G)p.r(U)p.r(A)p.r(T)p.r(T)}|RNA2{r(U)p.r(U)p.r(C)p.[una](A)p.r(G)p.r(U)p.r(G)p.r(U)p.r(G)p.r(A)p.r(U)p.r(G)p.r(A)p.r(C)p.r(A)p.r(C)p.r(U)p.r(U)p.r(G)p.r(T)p.r(T)}$$$RNA1{StrandType:ss}|RNA2{StrandType:as}$,94%
10,RNA1{r(A)p.r(A)p.r(C)p.r(A)p.r(G)p.r(U)p.r(C)p.r(C)p.r(U)p.m(U)p.r(A)p.r(G)p.r(C)p.m(U)p.r(A)p.r(C)p.r(G)p.r(C)p.m(U)p.r(T)p.r(T)}|RNA2{r(A)p.r(G)p.r(C)p.r(G)p.m(U)p.r(A)p.r(G)p.r(C)p.r(U)p.r(A)p.r(A)p.r(G)p.r(G)p.r(A)p.r(C)p.r(U)p.r(G)p.r(U)p.r(U)p.r(T)p.r(T)}$$$RNA1{StrandType:ss}|RNA2{StrandType:as}$,82%
11,RNA1{r(U)p.r(G)p.r(A)p.r(A)p.r(U)p.r(C)p.r(A)p.r(G)p.r(A)p.r(A)p.r(G)p.r(A)p.r(U)p.r(G)p.r(A)p.r(A)p.r(G)p.r(U)p.r(C)p.r(A)p.r(A)}|RNA2{[una](G)p.r(A)p.r(C)p.r(U)p.r(U)p.r(C)p.r(A)p.r(U)p.r(C)p.r(U)p.r(U)p.r(C)p.r(U)p.r(G)p.r(A)p.r(U)p.r(U)p.r(C)p.r(A)p.r(A)p.r(G)}$$$RNA1{StrandType:ss}|RNA2{StrandType:as}$,94% and 92%
12,RNA1{m(G)p.r(G)p.m(G)p.r(A)p.m(G)p.r(G)p.m(U)p.r(C)p.m(U)p.r(U)p.m(A)p.r(G)p.m(A)p.r(A)p.m(A)p.r(A)p.m(C)p.r(A)p.m(C)p.r(T)p.r(T)}|RNA2{r(G)p.r(U)p.r(G)p.r(U)p.r(U)p.r(U)p.r(U)p.r(C)p.r(U)p.r(A)p.r(A)p.r(G)p.r(A)p.r(C)p.r(C)p.r(U)p.r(C)p.r(C)p.r(C)p.r(T)p.r(T)}$$$RNA1{StrandType:ss}|RNA2{StrandType:as}$,17%
13,RNA1{m(U)p.r(A)p.m(G)p.r(C)p.m(C)p.r(A)p.m(G)p.r(A)p.m(G)p.r(C)p.m(C)p.r(A)p.m(A)p.r(A)p.r(G)p.m(A)p.r(A)p.r(G)p.r(C)p.r(T)p.r(T)}|RNA2{r(G)p.r(C)p.m(U)p.m(U)p.r(C)p.m(U)p.m(U)p.m(U)p.r(G)p.r(G)p.r(C)p.m(U)p.r(C)p.m(U)p.r(G)p.r(G)p.r(C)p.m(U)p.r(A)p.r(T)p.r(T)}$$$RNA1{StrandType:ss}|RNA2{StrandType:as}$,75%
14,RNA1{r(G)p.r(A)p.r(A)p.r(G)p.r(G)p.r(G)p.r(G)p.r(A)p.r(A)p.r(A)p.r(U)p.m(C)p.r(U)p.r(G)p.r(U)p.r(G)p.r(G)p.r(U)p.r(U)p.r(T)p.r(T)}|RNA2{r(A)p.r(A)p.r(C)p.m(C)p.r(A)p.r(C)p.r(A)p.r(G)p.r(A)p.r(U)p.r(U)p.r(U)p.r(C)p.r(C)p.r(C)p.r(C)p.r(U)p.r(U)p.r(C)p.r(T)p.r(T)}$$$RNA1{StrandType:ss}|RNA2{StrandType:as}$,65%
15,RNA1{r(A)p.r(A)p.r(A)p.r(C)p.r(A)p.r(U)p.r(G)p.r(C)p.r(A)p.r(G)p.r(A)p.r(A)p.r(A)p.r(A)p.r(U)p.r(G)p.r(C)p.r(U)p.r(G)p.r(T)p.r(T)}|RNA2{r(C)p.r(A)p.r(G)p.r(C)p.r(A)p.r(U)p.r(U)p.r(U)p.r(U)p.r(C)p.r(U)p.r(G)p.r(C)p.r(A)p.r(U)p.[s4r](G)p.[s4r](U)p.[s4r](U)p.[s4r](U)p.r(T)p.r(T)}$$$RNA1{StrandType:ss}|RNA2{StrandType:as}$,52.7%
16,RNA1{r(G)p.m(C)p.r(A)p.r(G)p.r(A)p.r(G)p.r(A)p.r(A)p.r(U)p.r(C)p.m(U)p.r(A)p.r(C)p.r(C)p.r(U)p.r(U)p.r(U)p.r(C)p.r(C)p.r(T)p.r(T)}|RNA2{r(G)p.r(G)p.r(A)p.r(A)p.r(A)p.r(G)p.r(G)p.m(U)p.r(A)p.r(G)p.r(A)p.r(U)p.r(U)p.r(C)p.r(U)p.r(C)p.m(U)p.r(G)p.r(C)p.r(T)p.r(T)}$$$RNA1{StrandType:ss}|RNA2{StrandType:as}$,75%
17,RNA1{m(G)p.m(G)p.m(A)p.r(C)p.r(U)p.m(A)p.r(C)p.r(U)p.m(A)p.m(A)p.r(C)p.r(C)p.r(U)p.r(C)p.r(C)p.m(A)p.m(G)p.r(U)p.r(U)p.r(T)p.r(T)}|RNA2{r(A)p.r(A)p.r(C)p.r(U)p.r(G)p.r(G)p.r(A)p.r(G)p.r(G)p.r(U)p.r(U)p.r(A)p.r(G)p.r(U)p.r(A)p.r(G)p.r(U)p.r(C)p.r(C)p.r(T)p.r(T)}$$$RNA1{StrandType:ss}|RNA2{StrandType:as}$,65%
18,RNA1{m(A)p.r(U)p.m(A)p.r(C)p.m(U)p.r(U)p.m(G)p.r(G)p.m(C)p.r(G)p.m(G)p.r(G)p.m(C)p.r(U)p.m(C)p.r(U)p.m(U)p.r(U)p.m(C)p.r(T)p.r(T)}|RNA2{r(G)p.r(A)p.r(A)p.r(A)p.r(G)p.r(A)p.r(G)p.r(C)p.r(C)p.r(C)p.r(G)p.r(C)p.r(C)p.r(A)p.r(A)p.r(G)p.r(U)p.r(A)p.r(U)p.r(T)p.r(T)}$$$RNA1{StrandType:ss}|RNA2{StrandType:as}$,19%
19,RNA1{r(A)p.r(G)p.r(A)p.r(U)p.r(G)p.r(U)p.r(U)p.r(C)p.r(U)p.r(C)p.r(G)p.r(U)p.r(A)p.r(A)p.r(G)p.r(G)p.r(A)p.r(C)p.r(G)p.r(T)p.r(T)}|RNA2{r(C)p.r(G)p.r(U)p.r(C)p.r(C)p.r(U)p.m(U)p.r(A)p.r(C)p.r(G)p.r(A)p.r(G)p.r(A)p.r(A)p.r(C)p.r(A)p.r(U)p.r(C)p.r(U)p.r(T)p.r(T)}$$$RNA1{StrandType:ss}|RNA2{StrandType:as}$,69%
20,RNA1{r(G)p.r(G)p.r(C)p.r(U)p.[fl2r](U)p.r(A)p.r(G)p.r(U)p.[fl2r](C)p.r(A)p.r(C)p.r(U)p.r(C)p.r(C)p.r(U)p.r(C)p.r(U)p.r(U)p.r(C)p.r(T)p.r(T)}|RNA2{r(G)p.r(A)p.r(A)p.r(G)p.r(A)p.r(G)p.r(G)p.r(A)p.r(G)p.[fl2r](U)p.r(G)p.r(A)p.r(C)p.[fl2r](U)p.r(A)p.r(A)p.r(G)p.r(C)p.r(C)p.r(T)p.r(T)}$$$RNA1{StrandType:ss}|RNA2{StrandType:as}$,68%
